Reference: patent publication US5434256A, “Diamine platinum complexes as antitumor agents” (priority 1994, dated 1995)

Tests used:
[1] = system: L1210/DACH cells; assay: MTT cytotoxicity, tetraplatin-resistant L1210/DACH (Example 5, Table 10); assay type: cell-based, murine; details: 72 hr (3 days) continuous exposure
[2] = system: L1210/0 cells; assay: MTT cytotoxicity, L1210/0 (Example 5, Table 10); assay type: cell-based, murine; details: 72 hr (3 days) continuous exposure
[3] = system: L1210/0 cells; assay: In vivo antitumor activity, L1210/0 (Example 6, Table 11); parameters: species or system male BDF1 mice; details: for % T/C at optimal dose: L1210/0 i.p., drug i.p. days 1, 5, 9, median survival, optimal dose (mg/kg/inj): 12, 13, 14: 25, 15: 12.5, Cisplatin: 5; for Optimal Dose: i.p., dose levels 1.56 to 200 mg/kg tested, L1210/0, L1210/DDP and M5076
Description: (§1) Cisplatin-sensitive L1210/0 or cisplatin-resistant L1210/DDP cells (1×10^5 cells/mouse) were injected intraperitoneally in male BDF1 mice on day 0, and the drug, in an aqueous medium, administered intraperitoneally at dose levels ranging from 1.56 to 200 mg/kg on days 1, 5 and 9. The median life spans of control (C) and treated (T) animals were determined, and the percent T/C at the optimal dose calculated as an indicator of antitumor efficacy. The complexes were also evaluated against the M5076 reticulosarcoma. […]. The tumor volumes were measured periodically and efficacy at the optimal dose reported as tumor growth delay (TGD), which is defined as the time difference in days for the tumor in control and treated mice to reach a specified volume.
(§2) BDF1 mice inoculated i.p. with 10^5 L1210 Leukemia cells on day 0 wer
administered the drug on days 1, 5, and 9. […]

[4] = system: L1210/DDP cells; assay: MTT cytotoxicity, cisplatin-resistant L1210/DDP (Example 5, Table 10); assay type: cell-based, murine; details: 72 hr (3 days) continuous exposure
[5] = system: Murine Leukemia L1210/DACH; assay: In vivo antitumor activity against murine leukemia L1210/DACH (Example 3, Table 6); parameters: species or system BDF1 mice
Description: (§3) Each of the platinum complexes was evaluated in vivo against L1210/0, L1210/DDP, L1210/DACH and M5076 cells at several dose levels. […] The data at optimal doses are reproduced in Tables 4-7 along with data for the cyclobutanedicarboxylato, aquasulfato, methylmalonato and tartronato analogs (compounds 1-4 in Table 1).
(§4) BDF1 mice inoculated i.p. with 10^5 L1210 Leukemia cells on day 0 and
(§5) drug administered i.p. on days 1, 5, and 9. MTD = Maximum Tolerated Dose
(§6) (mg/kg/injection), % T/C = (mean survival time of treated/mean survival
(§7) time of control) × 100. Figures in parenthesis indicated long term

[6] = system: M5076 Tumor Model; assay: In vivo antitumor activity against M5076 tumor model (Example 3, Table 4); parameters: species or system BDF1 mice; TGD (Tumor Growth Delay): unit not given beside the values; details: M5076 s.c., BDF1 mice, i.p. days 7, 14, 21, 28
Description: as §3
BDF1 mice inoculated s.c. with 10' M5076 cells on day 0 and drug
administered i.p on days 7, 14, 21, and 28. MTD = Maximum Tolerated Dose
(mg/kg/injection), TGD = Tumor Growth Delay

[7] = system: A2780 cells; assay: Modified MTT cytotoxicity assay, human ovarian A2780 (Example 2, Table 3); assay type: cell-based; details: continuous exposure (5 days in table footnote; 7 days in text)
[8] = system: M5076 reticulosarcoma; assay: In vivo antitumor activity, M5076 reticulosarcoma (Example 6, Table 11); parameters: species or system male BDF1 mice; details: M5076 s.c.; drug i.p. days 5, 9, 13, 17; optimal dose (mg/kg/inj): 12: 25; Cisplatin: 5
Description: as §1, §2
(§8) administered the drug on days 1, 5, and 9. BDF1 mice inoculated s.c. with
(§9) 10^7 M5076 cells on day 0 received the drug on days 5, 9, 13, and 17.
(§10) % T/C = [(median survival time of treated)/(median survival time of
(§11) control)] × 100. TGD = tumor growth delay.

[9] = system: L1210/0 cells; assay: Modified MTT cytotoxicity assay, murine leukemia L1210/0 (Example 2, Table 3); assay type: cell-based
[10] = system: L1210/DDP cells; assay: In vivo antitumor activity, cisplatin-resistant L1210/DDP (Example 6, Table 11); parameters: species or system male BDF1 mice; details: L1210/DDP i.p.; drug i.p. days 1, 5, 9; median survival; optimal dose (mg/kg/inj): 12: 25; Cisplatin: 5
Description: as §1, §2, §8, §9, §10, §11

[11] = system: Murine Leukemia L1210/0; assay: In vivo antitumor activity against murine leukemia L1210/0 (Example 3, Table 5); parameters: species or system BDF1 mice; details: L1210/0 i.p., BDF1 mice, drug i.p. days 1, 5, 9
Description: as §3
BDF1 mice inoculated i.p. with 10^5 L1210 Leukemiacells on day 0 and
as §5, §6
time of control) × 100. Figures in parenthesis indicate long term

[12] = system: Murine Leukemia 1210/DDP; assay: In vivo antitumor activity against murine leukemia L1210/DDP (Example 3, Table 7); parameters: species or system BDF1 mice; details: L1210/DDP i.p., BDF1 mice, drug i.p. days 1, 5, 9
Description: as §3, §4
drug administed i.p. on days 1, 5, and 9. MTD = Maximum Tolerated Dose
as §6, §7

SMILES | IC50 [1] [nM] | IC50 [2] [nM] | % T/C at optimal dose [3] [%] | Optimal Dose [3] [mg/kg/inj] | IC50 [4] [nM] | antitumor activity in vivo against L1210/DACH (in words) ([5]; L1210/DACH) | MTD (Maximum Tolerated Dose) ([5]; L1210/DACH i.p., BDF1 mice, drug i.p. days 1, 5, 9) [mg/kg/injection] | % T/C (mean survival time of treated/mean survival time of control) × 100 ([5]; L1210/DACH i.p., BDF1 mice, drug i.p. days 1, 5, 9, at optimal dose/MTD) [%] | MTD (Maximum Tolerated Dose) [6] [mg/kg/injection] | TGD (Tumor Growth Delay) ([6]; at optimal dose/MTD) | IC50 [7] [nM] | TGD (tumor growth delay) at optimal dose [8] [days] | IC50 ([9]; L1210/0, MTT, continuous exposure 5 days) [nM] | effectiveness against murine versus human cells (in words) ([9]; L1210/0 versus A2780) | % T/C at optimal dose [10] [%] | MTD (Maximum Tolerated Dose) [11] [mg/kg/injection] | % T/C (mean survival time of treated/mean survival time of control) × 100 ([11]; at optimal dose/MTD) [%] | MTD (Maximum Tolerated Dose) [12] [mg/kg/injection] | % T/C (mean survival time of treated/mean survival time of control) × 100 ([12]; at optimal dose/MTD) [%]
N[C@@H]1CCCC[C@H]1N.O=C([O][Pt]([Cl])([Cl])[O]C(=O)C(F)(F)F)C(F)(F)F [Compound 15, (R,R-1,2-DACH)PtCl2 trans(trifluoroacetate)2] | 1720 | 100 | 241 | 12.5 | 850 | – | – | – | – | – | – | – | – | – | – | – | – | – | –
CC(=O)[O][Pt]([Cl])([Cl])[O]C(C)=O.NC1CCCCC1N [Compound 14, (cis-1,2-DACH)PtCl2 trans(acetate)2] | 20900 | 3000 | 171 | 25 | 115000 | – | – | – | – | – | – | – | – | – | – | – | – | – | –
N.N.[Cl][Pt][Cl] [Cis-platin, cis-diaminedichloroplatinum(II), reference compound] | 1910 | 200 | 218 | 5 | 32800 | minimally sensitive to cis-platin | 5.0 | 127 | 5.0 | 23.1 | 360 | 16.0 | 230 | more effective against murine than human cells | 110 | 5.0 | 218 | 5.0 | 100
CC(=O)[O][Pt]([Cl])([Cl])[O]C(C)=O.N[C@@H]1CCCC[C@H]1N [Compound 12, (R,R-1,2-DACH)PtCl2 trans(acetate)2] | 2300 | 220 | 276 | 25 | 700 | – | – | – | – | – | – | 18.3 | – | – | 144 | – | – | – | –
